“Also recorded” adds a separate entry of the source.
What was measured:
[1] = in vivo; cited from earlier work
HDAC6 [2] = target: HDAC6 (Mus musculus (Mouse), UniProt Q9Z2V5); test: Ac-tubulin immunoblotting of tissues (HDAC6 inhibition in hypothalamus and brain regions); format: in vivo, mice; conditions: for HDAC6 inhibition in other brain regions: cerebrum, frontal lobe, temporal lobe, brainstem; for HDAC6 inhibition in the hypothalamus: mouse, in vivo
DIO mice [3] = test: Chronic treatment of DIO mice (body weight, food intake, DEXA, glucose homeostasis); format: in vivo; conditions: for body weight: 3 weeks i.p., ricolinostat 50 mg/kg, bavarostat 10 mg/kg, citarinostat 25 mg/kg; for food intake: 3 weeks treatment
Experimental: DIO mice were treated with ACY775 (10 mg/kg/day, i.p.) for 3 weeks. Daily body weight (g) of DIO mice treated with vehicle (n=17) or ACY775 (n=17) during 3 weeks of treatment was determined. Daily food intake (g) during 3 weeks of vehicle or ACY775 treatment was assessed. 24 hours' food intake per mouse during the first week of vehicle or ACY775 treatment was determined. Serum leptin (ng/ml) levels after 3 weeks of vehicle (n=24) or ACY775 (n=24) treatment was assessed. Lean mass (g), fat mass (g) and fat percentage (%) after 3 weeks of vehicle (n=17) or ACY775 (n=17) treatment measured by Dual-energy X-ray absorptiometry (DEXA) scan. DEXA scans were performed in two different cohorts. Glucose tolerance test (GTT) after 1 week of vehicle (n=33) or ACY775 (n=26) treated DIO mice was assessed. Area of curve (AOC) analysis for GTT was performed. Blood glucose (mg/dl) levels after 1 week of vehicle (n=17) or ACY775 (n=16) were assessed in treated DIO mice. Insulin tolerance test (ITT) was performed after 2 weeks of vehicle (n=31) or ACY775 (n=21) treatment of DIO mice. Serum insulin (ng/ml) levels were measured after 3 weeks of vehicle (n=22) or ACY775 (n=21) in treated DIO mice. A homeostatic model assessment of insulin resistance (HOMA-IR) was analyzed after 3 weeks of vehicle (n=14) or ACY775 (n=13) treated DIO mice.
Food intake was analyzed hourly until 3:00 am. […] DEXA scans were performed in two different cohorts.
DIO mice then were treated with ricolinostat (50 mg/kg, i.p.) for 3 weeks. Daily body weight (g), daily food intake (g), serum leptin (ng/ml) levels after 3 weeks of vehicle (n-8) or ricolinostat (n=8) treatment, lean mass (g); fat mass and fat percentage (%) after 3 weeks of vehicle (n=16) or ricolinostat (n=17) treatment measured by DEXA scan were determined.
Blood glucose (mg/dl) levels were measured after 1 week of vehicle (n=16) or ricolinostat (n=16) treated DIO mice. GTT after 1 week of vehicle (n=17) or ricolinostat (n=16) treatment of DIO mice was assessed. AOC analysis for GTT was performed. ITT after 2 weeks of vehicle (n=17) or ricolinostat (n=16) treated DIO mice was measured. Serum insulin (ng/ml) levels after 3 weeks of vehicle (n=8) or ricolinostat (n=8) treatment were measured in DIO mice. Liver sections from 3 weeks of vehicle or ricolinostat treated DIO mice were stained by H&E.
DIO mice then were treated with bavarostat (10 mg/kg, i.p.) for 3 weeks and daily body weight (g) of DIO mice treated with Veh (n=9) or bavarostat (n=9) measured during the three weeks of treatment period. Daily food intake (g) during 3 weeks of Veh or bavarostat treatment was also measured.
ACY1083 was administered to DIO mice as described in Example 3.

HDAC6 [4] = test: Ac-tubulin immunoblotting in HEK293 cells; format: cell-based
DIO mice [5] = test: Acute leptin co-treatment in DIO mice (body weight, food intake 15 h); format: in vivo; conditions: for body weight, agent alone: ACY775 10 mg/kg, ricolinostat 25 mg/kg
Experimental: DIO mice were pretreated with ACY775 (10 mg/kg/day, i.p.) or vehicle for 3 days, which was followed by co-treatment with ACY775 (or vehicle) and leptin (1 mg/kg, i.p.) (or saline) (n=9 for each group), % change in body weight 15 h after leptin treatment, food intake (g) during the 15 h period after leptin treatment. The results in were reproduced in two independent experiments.
Diet induced obese (DIO) mice were pretreated with ACY775 (10 mg/kg/day, i.p.) or vehicle for 3 days, which was followed by co-treatment with ACY775 (or vehicle) and leptin (1 mg/kg, i.p.) (or saline) (n=9 for each group). Mice were evaluated for % change in body weight 15 h after leptin treatment, and food intake (g) during the 15 h period after leptin treatment.
DIO mice were pretreated with ricolinostat (25 mg/kg/day, i.p.) or vehicle for 3 days, which was followed by co-treatment with ricolinostat (or vehicle) and leptin (1 mg/kg, i.p.) (or saline) (n=32 for each group). Change in body weight 15 h after leptin treatment, and food intake (g) during the 15 h period after leptin treatment were determined. The results were reproduced in two independent experiments.

[6] = Brain/plasma ratio and brain or hypothalamus penetration; conditions: in vivo
p-STAT3^Tyr705 = test: Leptin-stimulated hypothalamic STAT3 Tyr705 phosphorylation in DIO mice; format: in vivo; conditions: 45 minutes after leptin 1 mg/kg i.p.
Experimental: DIO mice were pretreated with ACY775 (10 mg/kg/day, i.p.) or vehicle for 3 days, which was followed by a last injection of ACY775 (or vehicle) in the morning of fourth day. 6 hours later mice were injected with saline or leptin (1 mg/kg, i.p.) and hypothalamus were extracted after 45 minutes following the leptin injection. Representative immunoblots for STAT3^Tyr705 phosphorylation and total STAT3 from the hypothalamus. Quantification of the ratio of p-STAT3^Tyr705 to total-STAT3 signal in the immunoblots. The results were reproduced in three independent experiments. The results were analyzed hourly.
DIO mice were pretreated with ACY775 (10 mg/kg/day, i.p.) or vehicle for 3 days, which was followed by a last injection of ACY775 (or vehicle) in the morning of fourth day. 6 hours later mice were injected with saline or leptin (1 mg/kg, i.p.) and the hypothalamus were extracted after 45 minutes following the leptin injection.
6 hours later mice were injected with saline or leptin (1 mg/kg, i.p.) and hypothalamus were extracted after 45 minutes following the leptin injection. Immunoblots for STAT3^Tyr705 phosphorylation and total STAT3 from the hypothalamus were made to quantify the ratio of p-STAT3^Tyr705 to total-STAT3 signal in the immunoblots. The results were reproduced in two independent experiments.
DIO mice were pretreated with ricolinostat (50 mg/kg/day, i.p.) or vehicle 3 days, which was followed by a last injection of ricolinostat (or vehicle) in the morning of fourth day. 6 hours later mice were injected with saline or leptin (1 mg/kg, i.p.) and the hypothalamus were extracted after 45 minutes following the leptin injection. Immunoblots were performed for STAT3^Tyr705 phosphorylation and total STAT3 from the hypothalamus. The ratio of p-STAT3^Tyr705 to total STAT3 signal in the immunoblots was quantified.

HDAC6-KO DIO mice = test: Chronic treatment of DIO WT versus HDAC6 KO mice; format: in vivo; conditions: DIO mice, 3 weeks; ACY775 10, ACY738 50, Tubastatin A 25 mg/kg/day i.p.
[7] = test system: ACY775-responsive DMH neurons; test: Chemogenetic (hM3Dq) activation of ACY775-responsive DMH neurons; format: in vivo; conditions: ACY775-induced hM3Dq TRAP2 DIO mice
Experimental: Next, the ACY775-responsive DMH neurons were chemogenically activated to investigate whether activation of these neurons would be sufficient to reduce the food intake and the bodyweight. Adeno-associated virus (AAV) carrying Cre-dependent hM3Dq-DREADD fused to mCherry transgene (AAV-DIO-hM3Dq-mCherry) was injected bilaterally into the DMH of TRAP2 DIO mice. Four weeks after injections, a single dose of ACY775 (10 mg/kg, i.p.) or vehicle was injected to induce c-fos expression. Subsequently, 4-OHT injection was performed after 5 h to activate c-fos driven Cre in the fasted DIO mice. The mCherry signal was expressed only in ACY775-treated TRAP2 DIO mice and was absent in vehicle-treated TRAP2 DIO mice.
Next, both AAV-DIO-hM3Dq-mCherry- and ACY775-injected, and vehicle-treated TRAP2 DIO mice with saline were treated for 3 days and with clozapine N-oxide (CNO) for 4 days. […] The blood glucose levels at the end of saline and CNO treatment was also measured. […] Blood glucose lowering effect of CNO was absent compared in Veh-induced TRAP2 DIO mice and in all the saline-treated mice.

Chain of HDAC6 (Mus musculus (Mouse), UniProt Q9Z2V5) (Q9Z2V5 whole entry): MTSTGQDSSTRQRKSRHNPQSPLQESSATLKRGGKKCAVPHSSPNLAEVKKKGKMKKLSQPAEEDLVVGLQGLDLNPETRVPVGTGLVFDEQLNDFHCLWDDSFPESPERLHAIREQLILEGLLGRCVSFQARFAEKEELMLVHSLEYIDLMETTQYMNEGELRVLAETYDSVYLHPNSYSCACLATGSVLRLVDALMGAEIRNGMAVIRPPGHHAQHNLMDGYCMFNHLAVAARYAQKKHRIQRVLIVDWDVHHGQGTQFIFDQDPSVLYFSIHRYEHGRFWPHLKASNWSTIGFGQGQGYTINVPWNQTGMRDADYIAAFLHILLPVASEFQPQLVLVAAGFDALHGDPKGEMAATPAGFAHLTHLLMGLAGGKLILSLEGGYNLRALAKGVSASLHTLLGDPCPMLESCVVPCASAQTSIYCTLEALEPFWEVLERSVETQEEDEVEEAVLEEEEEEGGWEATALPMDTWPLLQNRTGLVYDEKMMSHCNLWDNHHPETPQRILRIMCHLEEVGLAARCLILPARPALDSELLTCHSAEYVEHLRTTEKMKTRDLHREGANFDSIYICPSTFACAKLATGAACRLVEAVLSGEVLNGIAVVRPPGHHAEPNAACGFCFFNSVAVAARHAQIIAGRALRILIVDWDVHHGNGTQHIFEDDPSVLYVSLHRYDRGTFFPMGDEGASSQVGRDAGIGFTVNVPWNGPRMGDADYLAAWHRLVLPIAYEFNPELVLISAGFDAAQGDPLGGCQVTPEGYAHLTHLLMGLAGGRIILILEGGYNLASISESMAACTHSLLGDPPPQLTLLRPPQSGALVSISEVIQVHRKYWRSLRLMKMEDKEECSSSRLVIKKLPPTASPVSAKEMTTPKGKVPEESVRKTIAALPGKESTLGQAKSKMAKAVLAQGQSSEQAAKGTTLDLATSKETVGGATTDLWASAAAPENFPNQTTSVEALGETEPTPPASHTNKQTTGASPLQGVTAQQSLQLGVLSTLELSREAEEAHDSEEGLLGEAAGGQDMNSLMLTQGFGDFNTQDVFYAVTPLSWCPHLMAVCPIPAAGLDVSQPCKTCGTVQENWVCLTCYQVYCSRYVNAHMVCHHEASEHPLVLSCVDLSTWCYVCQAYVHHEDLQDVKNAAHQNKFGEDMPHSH

Compound: O=C(CCCCCCNC(=O)c1cnc(N(c2ccccc2)c2ccccc2Cl)nc1)NO [citarinostat]
- brain penetrance / BBB permeability [1]: good brain penetrance
- HDAC6 inhibition in other brain regions (HDAC6 [2]): inhibits HDAC6 in other brain regions
- HDAC6 inhibition in the hypothalamus (HDAC6 [2]): does not show HDAC6 inhibition in the AGP neurons in the hypothalamus
- HDAC6 inhibition in the hypothalamus (HDAC6 [2]; listed as Citarinostat): but not in the hypothalamus
- body weight (DIO mice [3]; DIO mice): not effective in reducing body weight

Compound: CC1CCC(C(C)(C2CCC(C)CC2)C2CCC(C(C)C(C)CCCCC(C)C(C)C)CC2)CC1 (stereo not drawn) [ACY257]
- HDAC6 inhibition in other brain regions (HDAC6 [2]): does not inhibit HDAC6 in other brain regions
- body weight (DIO mice [3]; DIO mice): as effective as ACY775 in reducing body weight

Compound: O=C(CCCCCCNC(=O)c1cnc(N(c2ccccc2)c2ccccc2)nc1)NO [ricolinostat]
- tubulin acetylation (HDAC6 inhibitor activity in cells) (HDAC6 [4]): confirmation of Ricolinstat's HDAC6 inhibitory activity
- brain penetrance / BBB permeability [1]: poor BBB permeability
- brain/plasma ratio [1]: < 0.01
- body weight, agent alone (DIO mice [5]; 15 h, leptin 1 mg/kg i.p.): did not decrease the bodyweight
- food intake, agent alone (DIO mice [5]; 15 h period): had no effect on the food intake
- body weight, leptin after pre-treatment with inhibitor (DIO mice [5]; 3 days pre-treatment, leptin 1 mg/kg i.p., 15 h): did not reduce the body weight
- food intake, leptin together with inhibitor (DIO mice [5]; leptin 1 mg/kg i.p., 15 h period): had no effect on the food intake
- penetrance into the hypothalamus [6]: neither of which have high penetrance into the hypothalamus
- leptin-stimulated hypothalamic p-STAT3^Tyr705 (p-STAT3^Tyr705): did not significantly increase STAT3^Tyr705 phosphorylation
- insulin tolerance test (ITT) (DIO mice [3]; DIO mice): did not improves
- hepatic steatosis (H&E liver) (DIO mice [3]; DIO mice, 3 weeks): no decrease in the hepatic steatosis
- body weight (DIO mice [3]; DIO mice): minimal decrease in bodyweight for the first couple of days without creating any meaningful or significant decreases; also recorded: does not reduce body weight
- food intake (DIO mice [3]; DIO mice): reduced transitionally during the first 2-3 days of treatment but then rebounded
- glucose tolerance test (GTT) (DIO mice [3]; DIO mice, after 1 week): did not improves glucose tolerance
- serum insulin levels (DIO mice [3]; DIO mice, after 3 weeks): did not reduce insulin levels

Compound: leptin: peptide hormone that serves as the afferent signal in a negative feedback loop regulating food intake and body weight
- body weight, agent alone (DIO mice [5]; 15 h, leptin 1 mg/kg i.p.): did not significantly alter their bodyweight; also recorded: did not change their bodyweight
- food intake, agent alone (DIO mice [5]; 15 h period): did not significantly change the food intake
- leptin-stimulated hypothalamic p-STAT3^Tyr705 (p-STAT3^Tyr705): did not significantly increase STAT3^Tyr705 phosphorylation

Compound: CN(Cc1ccc(C(=O)NO)cc1F)CC12CC3CC(CC(C3)C1)C2 [bavarostat, 4-(((((3r,5r,7r)-adamantan-1-yl)methyl)(methyl)amino)methyl)-3-fluoro-N-hydroxybenzamide]
- brain penetrance / BBB permeability [1]: high brain penetrance
- body weight, WT versus HDAC6 KO (HDAC6-KO DIO mice): treatment of wild type mice but not HDAC6 Knockout animals with bavarostat caused weight loss; also recorded: equivalent to vehicle in HDAC-6 KO mice
- penetrance into the hypothalamus [6]: high penetrance of the hypothalamus
- body weight (DIO mice [3]; DIO mice): statistically significantly effective in reducing food intake and body weight
- food intake (DIO mice [3]; DIO mice): Appetite was initially suppressed but then rose over time
- food intake and total body fat mass (summary) (DIO mice [3]; high fat diet induced mice): significant reduction of food intake and total body fat mass

Compound: C[N+]1([O-])CCN(C2=Nc3cc(Cl)ccc3Nc3ccccc32)CC1 [CNO, clozapine N-oxide]
- blood glucose levels [7]: significantly decreased blood glucose levels
- bodyweight and food intake ([7]; CNO 4 days): significant reduction in bodyweight and food intake
